# Source: US20260152490A1, “METHYLLACTAM RING COMPOUND AND PHARMACEUTICAL USE THEREOF” (Japan Tobacco Inc., priority 2018, published 2026)
# Assays:
# [1] = tested on: Escherichia coli WP2uvrA; test: Ames test (reverse mutation test), WP2uvrA; assay type: cell-based; conditions: without S9 mix, 0.01 μg/plate, positive control
# Excerpt: (§1) Metabolite 1 and Metabolite C were each tested herein.
# (§2) Two plates per treatment were used.
# [2] = tested on: glucose-loaded SD rats; test: OGTT (Oral Glucose Tolerance Test), Test Example 2; assay type: in vivo; conditions: male SD rat, 1, 3, or 10 mg/kg orally, glucose load after 16 hours, to 120 minutes, compared to vehicle
# Experimental: Vehicle (0.5% methylcellulose solution) or Compound 1 (1, 3, or 10 mg/kg) suspended in a 0.5% methylcellulose solution was orally administered in 5 mL/kg to an about 4-hour-fasted male SD rat (8-week old, Nihon Charles River K.K., 6 cases for each group).
# Statistical analyses were based on Steel's multiple test. The significance level was two-sided 5%.
# [3] = tested on: glucose-loaded SD rats; test: OGTT (Oral Glucose Tolerance Test), Test Example 3; assay type: in vivo; conditions: male SD rat, 3 mg/kg orally, glucose load after 16 hours, to 120 minutes, compared to vehicle
# Experimental: Vehicle (0.5% methylcellulose solution) or Compound 1, Compound A, or Compound B (3 mg/kg each) suspended in a 0.5% methylcellulose solution was orally administered in 5 mL/kg to an about 4-hour-fasted male SD rat (8-week old, Nihon Charles River K.K., 5 cases for each group).
# Statistical analyses were based on Dunnett's multiple group test. The significance level was two-sided 5%.
# [4] = tested on: Salmonella typhimurium TA1535; test: Ames test (reverse mutation test), TA1535; assay type: cell-based; conditions: TA1535, with S9 mix, 2.0 μg/plate, positive control
# Excerpt: as §1, §2
# [5] = tested on: Salmonella typhimurium (TA98, TA1537, TA100, and TA1535) and Escherichia coli (WP2uvrA); test: Ames test (reverse mutation test), all tester strains: overall conclusion and precipitation; assay type: cell-based; design: key to Precipitation: * Growth inhibition; †: Precipitation
# Excerpt: as §1, §2
# [6] = tested on: Salmonella typhimurium TA98; test: Ames test (reverse mutation test), TA98; assay type: cell-based; conditions: TA98 with S9 mix
# Excerpt: as §1, §2
# [7] = tested on: Salmonella typhimurium TA100; test: Ames test (reverse mutation test), TA100; assay type: cell-based; conditions: TA100 with S9 mix
# Excerpt: as §1, §2
structure (smiles),measurement,setting,value
"NC(=O)C(=Cc1ccc([N+](=O)[O-])o1)c1ccco1 [AF-2, 2-(2-Furyl)-3-(5-nitro-2-furyl)acrylamide]",Number of revertant colonies,[1]; Table 4,69
same,Number of revertant colonies,[1]; Table 7,74
"C[C@H]1C(=O)NC[C@@H]1C(=O)Nc1cc(-c2cc(F)cc(OC(C)(C)C)c2)n(C(F)(F)F)n1 [Compound 1, (3R,4R)—N-(5-(3-(tert-butoxy)-5-fluorophenyl)-1-(trifluoromethyl)-1H-pyrazol-3-yl)-4-methyl-5-oxopyrrolidine-3-carboxamide]","blood glucose level after the glucose load (Δ AUC, % of Vehicle)",[2],significantly reduced the blood glucose level
same,"blood glucose level after the glucose load (A AUC, % of Vehicle)",[3],significantly reduced the blood glucose level
"Nc1ccc2cc3ccccc3cc2c1 [Compound 2AA, 2-Aminoanthracene]",Number of revertant colonies,[4]; Table 2,223
same,Number of revertant colonies,[4]; Table 6,250
CC(C)(C)Oc1cc(F)cc(-c2cc(N)nn2C(F)(F)F)c1 [Metabolite 1],potential to induce reverse mutations,"[5]; any of the bacterial tester strains, presence or absence of S9 mix",did not have potential to induce reverse mutations
same,Precipitation,"[5]; with S9 mix, 556 μg/plate, Table 1 (TA98, TA100)",†
same,Precipitation,"[5]; with S9 mix, 1667 μg/plate, Table 1 (TA98, TA100)",†
same,Precipitation,"[5]; with S9 mix, 5000 μg/plate, Table 1 (TA98, TA100)",†
same,Precipitation,"[5]; with S9 mix, 5000 μg/plate, Table 2 (TA1537, TA1535, WP2uvrA)",†
same,Precipitation,"[5]; without S9 mix, 5000 μg/plate, Table 4 (all five strains)",†
CC(C)(C)Oc1cccc(-c2cc(N)nn2-c2ccccc2)c1 [Metabolite C],Precipitation,"[5]; with S9 mix, 556 μg/plate, Table 6 (TA1537, TA1535, WP2uvrA)",†
same,Precipitation,"[5]; with S9 mix, 1667 μg/plate, Table 6 (TA1537, TA1535, WP2uvrA)",†
same,Precipitation,"[5]; with S9 mix, 5000 μg/plate, Table 6 (TA1537, TA1535, WP2uvrA)",†
same,Precipitation,"[5]; without S9 mix, 556 μg/plate, Table 7 (all five strains)",†
same,Precipitation,"[5]; without S9 mix, 1667 μg/plate, Table 7 (all five strains)",†
same,Precipitation,"[5]; without S9 mix, 5000 μg/plate, Table 7 (all five strains)",†
same,potential to induce reverse mutations,[6],had potential to induce reverse mutations
same,potential to induce reverse mutations,[7],had potential to induce reverse mutations
